Experimental data reported in US9464082B2, “Aryl and arylalkyl substituted pyrazolyl and pyrimidinyl tricyclic enones as antioxidant inflammation modulators” (AbbVie Inc., priority 2014, dated 2016).

Test system: IFNγ-Induced NO Production
Test: Nitric Oxide Suppression Assay (Suppression of IFNγ-Induced NO Production)
Assay type: cell-based
Conditions: RAW264.7; RAW 264.7 mouse macrophage cells; 2 hour pre-treatment with compound (3 μM to 0.3 nM, 10 point curve); 20 ng/mL interferon gamma, ~18 hour; Griess detection; n=2-3 in duplicates
How it was run: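 Mouse RAW 264.7 macrophages pre-treated 2 h at 37 °C with compound (3 μM to 0.3 nM, 10 points; DMSO ≤1%), then stimulated with 20 ng/mL interferon gamma for ~18 h. Supernatant nitrite measured by Griess reaction, absorbance 520–550 nm. IC50 from curve fit of signal normalised to IFNγ alone, mean n=2-3 in duplicate.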

**Q.** `C[C@@H]1C(=O)C(C#N)=C[C@]2(c3ccccc3)c3nn(C)cc3CC[C@@H]12` [Example 52, (5aS,6S,9aR)-2,6-dimethyl-7-oxo-9a-phenyl-4,5,5a,6,7,9a-hexahydro-2H-benzo[g]indazole-8-carbonitrile] was tested. Which IC50 did it give?
**A.** 53.2 nM

**Q.** For `C[C@@H]1C(=O)C(C#N)=C[C@]2(c3cccc(F)c3)c3n[nH]cc3CC[C@@H]12` [Example 53, (5aS,6S,9aR)-9a-(3-fluorophenyl)-6-methyl-7-oxo-4,5,5a,6,7,9a-hexahydro-2H-benzo[g]indazole-8-carbonitrile], which IC50 is on record?
**A.** 31.7 nM

**Q.** With `C[C@@H]1C(=O)C(C#N)=C[C@]2(c3ccc(F)cc3)c3n[nH]cc3CC[C@@H]12` [Example 54, (5aS,6S,9aR)-9a-(4-fluorophenyl)-6-methyl-7-oxo-4,5,5a,6,7,9a-hexahydro-2H-benzo[g]indazole-8-carbonitrile] as the compound, how does the IC50 read?
**A.** 35.5 nM

**Q.** With `C[C@@H]1C(=O)C(C#N)=C[C@]2(c3cccc(F)c3)c3ncncc3CC[C@@H]12` [Example 55, (6aS,7S,10aR)-10a-(3-fluorophenyl)-7-methyl-8-oxo-5,6,6a,7,8,10a-hexahydrobenzo[h]quinazoline-9-carbonitrile] as the compound, how does the IC50 read?
**A.** 11.4 nM

**Q.** For `COc1ccc([C@]23C=C(C#N)C(=O)[C@@H](C)[C@@H]2CCc2c[nH]nc23)cc1` [Example 58, (5aS,6S,9aR)-9a-(4-methoxyphenyl)-6-methyl-7-oxo-4,5,5a,6,7,9a-hexahydro-2H-benzo[g]indazole-8-carbonitrile], which IC50 is on record?
**A.** 33.4 nM

**Q.** With `COC(=O)c1cccc([C@]23C=C(C#N)C(=O)[C@@H](C)[C@@H]2CCc2cncnc23)c1` [Example 59, methyl 3-[(6aS,7S,10aR)-9-cyano-7-methyl-8-oxo-6,6a,7,8-tetrahydrobenzo[h]quinazolin-10a(5H)-yl]benzoate] as the compound, how does the IC50 read?
**A.** 6.53 nM

**Q.** `C[C@@H]1C(=O)C(C#N)=C[C@]2(c3cccc(C(=O)O)c3)c3ncncc3CC[C@@H]12` [Example 60, 3-[(6aS,7S,10aR)-9-cyano-7-methyl-8-oxo-6,6a,7,8-tetrahydrobenzo[h]quinazolin-10a(5H)-yl]benzoic acid] was tested. Which IC50 did it give?
**A.** > 3000 nM

**Q.** How did the IC50 turn out when `C[C@@H]1C(=O)C(C#N)=C[C@]2(c3cccc(C(N)=O)c3)c3ncncc3CC[C@@H]12` [Example 61, 3-[(6aS,7S,10aR)-9-cyano-7-methyl-8-oxo-6,6a,7,8-tetrahydrobenzo[h]quinazolin-10a(5H)-yl]benzamide] was run?
**A.** 591 nM

**Q.** Which IC50 does the source give for `COC(=O)c1cccc([C@]23C=C(C#N)C(=O)[C@@H](C)[C@@H]2CCc2c[nH]nc23)c1` [Example 62, methyl 3-[(5aS,6S,9aR)-8-cyano-6-methyl-7-oxo-2,4,5,5a,6,7-hexahydro-9aH-benzo[g]indazol-9a-yl]benzoate] here?
**A.** 39.4 nM

**Q.** `COC(=O)c1ccc([C@]23C=C(C#N)C(=O)[C@@H](C)[C@@H]2CCc2c[nH]nc23)cc1` [Example 63, methyl 4-[(5aS,6S,9aR)-8-cyano-6-methyl-7-oxo-2,4,5,5a,6,7-hexahydro-9aH-benzo[g]indazol-9a-yl]benzoate] was tested. Which IC50 did it give?
**A.** 26.6 nM

**Q.** For `COC(=O)c1ccc([C@]23C=C(C#N)C(=O)[C@@H](C)[C@@H]2CCc2cncnc23)cc1` [Example 64, methyl 4-[(6aS,7S,10aR)-9-cyano-7-methyl-8-oxo-6,6a,7,8-tetrahydrobenzo[h]quinazolin-10a(5H)-yl]benzoate], which IC50 is on record?
**A.** 11 nM

**Q.** How did the IC50 turn out when `C[C@@H]1C(=O)C(C#N)=C[C@]2(c3ccccc3)c3c(cnn3Cc3ccc(Br)cc3)CC[C@@H]12` [Example 65, (5aS,6S,9aR)-1-(4-bromobenzyl)-6-methyl-7-oxo-9a-phenyl-4,5,5a,6,7,9a-hexahydro-1H-benzo[g]indazole-8-carbonitrile] was run?
**A.** 109 nM

**Q.** For `C[C@@H]1C(=O)C(C#N)=C[C@]2(c3ccc(C(=O)O)cc3)c3ncncc3CC[C@@H]12` [Example 66, 4-[(6aS,7S,10aR)-9-cyano-7-methyl-8-oxo-6,6a,7,8-tetrahydrobenzo[h]quinazolin-10a(5H)-yl]benzoic acid], which IC50 is on record?
**A.** 809 nM
